The nature of data set [1]: Isothermic (25° C.) DVS analysis of salts of the compound of Formula I. In kind it is physicochemical. The note with it: for Mass gain by DVS: 80% relative humidity, 25° C.; for Hygroscopicity by DVS (in words): isothermic 25° C.; for Deliquescence upon removal from the DVS chamber: sample remained a free-flowing powder. The text has this:
(FIG. 16D). […] Some hysteresis was observed. […] (FIG. 16C). […] (FIG. 16D).
(FIG. 18A). […] (FIG. 18B). […] Some hysteresis was observed. […] An overlay of FTIR spectra of the L- and D-malic acid salts is shown in FIG. 18F. ^1H NMR spectra of the L- and D-malic salts in DMSO-d^6 are shown in FIG. 18G-18H, respectively.

Data set [2] can be described thus: Solubility test of the D-malic acid salt (room temperature, 60° C., 70° C.). In kind it is physicochemical. Particulars: for Solids dissolve at 70° C.?: 70° C. for approximately 3.0 hours.
A short description of data set [3]: Stability screening of freebase and selected salts of Formula I, 40° C. and 75% RH, weekly HPLC over 4 weeks. The note with it: for Absolute % change: 40° C. and 75% RH, T = 0 to 4 weeks; for Stability, HPLC analysis, T = 1 week / Stability, HPLC analysis, T = 2 weeks / Stability, HPLC analysis, T = 3 weeks / Stability, HPLC analysis, T = 4 weeks / Stability, HPLC analysis, T = 0: stored at 40° C. and 75% RH.

Data set [4] in a line: Solubility test of the HBr salt of the compound of Formula I. In kind it is physicochemical. The note with it: for Appearance at 25° C. after 2 h / Solids dissolve at 65° C.?: HBr salt; for Appearance at 25° C. after 2 h: 10-20 mg in 1 mL; for Solids dissolve at 65° C.?: 65° C. for 3 hours.
A short description of data set [5]: Solubility screening of the compound of Formula IV (freebase) in solvent mixtures. In kind it is physicochemical. The note with it: approximately 25° C.

By solubility is commonly meant the concentration that dissolves in the medium under given conditions.

Where only a bound is given, the exact number is not on record here.

`COc1ccc(CN2CCN(c3ccc(-c4cc(-c5cnn(C)c5)cn5ncc(C#N)c45)cn3)CC2)cn1.O=C(O)C[C@@H](O)C(=O)O` [D-malic acid salt]: the “Mass gain by DVS” value in data set [1] is on record as “approximately 2.8%”. In addition, in data set [1], the “Hygroscopicity by DVS (in words)” value is listed as “hygroscopic”. For the same compound, the “Deliquescence upon removal from the DVS chamber” value in data set [1] is “no observable deliquescence”. The “Solids dissolve at 60° C.?” value is “Yes (>15 mg/mL)” in data set [2] (60° C. for 3.0 hours, solvent 0.1M HCl, Yes); “No” in data set [2] (60° C. for 3.0 hours, solvent 2-methyl THF); “No” in data set [2] (60° C. for 3.0 hours, solvent ACN); “No” in data set [2] (60° C. for 3.0 hours, solvent Acetone); “No” in data set [2] (60° C. for 3.0 hours, solvent DCE); “Yes (>40 mg/mL)” in data set [2] (60° C. for 3.0 hours, solvent DMSO, Yes). Moreover, the “Solids dissolve at 60° C.?” value was “No” in data set [2] (60° C. for 3.0 hours, solvent EtOAc); “No” in data set [2] (60° C. for 3.0 hours, solvent EtOH); “No” in data set [2] (60° C. for 3.0 hours, solvent IPA); “No” in data set [2] (60° C. for 3.0 hours, solvent MEK); “No” in data set [2] (60° C. for 3.0 hours, solvent MTBE); “No” in data set [2] (60° C. for 3.0 hours, solvent MeOH). Moreover, the “Solids dissolve at 60° C.?” value in data set [2] (60° C. for 3.0 hours, solvent Toluene) was “No”; in data set [2] (60° C. for 3.0 hours, solvent iPAc), “No”; in data set [2] (60° C. for 3.0 hours, solvent water), “No”; in data set [2] (solvent THF, cell says At 65° C.), roughly 10 mg/mL. For the same compound, the “Solids dissolve at 70° C.?” value in data set [2] (solvent 2-methyl THF) was “No”; in data set [2] (solvent ACN), “No”; in data set [2] (solvent DCE), “No”; in data set [2] (solvent DMSO, Yes), “Yes (>56 mg/mL)”; in data set [2] (solvent EtOAc) it was “No”; in data set [2] (solvent EtOH), “No”. In addition, the “Solids dissolve at 70° C.?” value in data set [2] (solvent IPA), in data set [2] (solvent MEK), in data set [2] (solvent MTBE), in data set [2] (solvent Toluene), in data set [2] (solvent iPAc) and in data set [2] (solvent water) was “No” in each case. The Absolute % change in data set [3] turned out to be 0.6%. Besides, in data set [3], the “Stability, HPLC analysis, T = 1 week” value was found to be 97.6%. In addition, in data set [3], the “Stability, HPLC analysis, T = 2 weeks” value stood at 97.4%. The “Stability, HPLC analysis, T = 3 weeks” value in data set [3] is 97.2%. Besides, in data set [3], the “Stability, HPLC analysis, T = 4 weeks” value amounted to 97.1%. The “Stability, HPLC analysis, T = 0” value in data set [3] amounted to 97.7%.
On to `COc1ccc(CN2CCN(c3ccc(-c4cc(-c5cnn(C)c5)cn5ncc(C#N)c45)cn3)CC2)cn1` [Freebase I], for which, in data set [3], the Absolute % change amounted to 0.4%; the “Stability, HPLC analysis, T = 1 week” value is on record as 97.3%; the “Stability, HPLC analysis, T = 2 weeks” value was determined as 97.1%; the “Stability, HPLC analysis, T = 3 weeks” value came out at 97.1%. In data set [3], the “Stability, HPLC analysis, T = 4 weeks” value is 96.9% and the “Stability, HPLC analysis, T = 0” value came out at 97.3%.
Turning to `Br.COc1ccc(CN2CCN(c3ccc(-c4cc(-c5cnn(C)c5)cn5ncc(C#N)c45)cn3)CC2)cn1` [HBr salt], in data set [4] (DMSO), the solubility is recorded as 1.95 mg/mL. For the same compound, the “Appearance at 25° C. after 2 h” value in data set [4] (solvent 2-methyl THF), in data set [4] (solvent ACN), in data set [4] (solvent Acetone), in data set [4] (solvent DCE), in data set [4] (solvent DCM) and in data set [4] (solvent DMSO) was “Solids” each time. Further, the “Appearance at 25° C. after 2 h” value in data set [4] (solvent EtOAc), in data set [4] (solvent EtOH), in data set [4] (solvent IPA), in data set [4] (solvent MEK), in data set [4] (solvent MTBE) and in data set [4] (solvent MeOH) was “Solids” in each case. Also, the “Appearance at 25° C. after 2 h” value in data set [4] (solvent THF), in data set [4] (solvent iPAc) and in data set [4] (solvent water) was “Solids” in each case. In addition, the “Solids dissolve at 65° C.?” value in data set [4] (solvent 2-methyl THF), in data set [4] (solvent ACN), in data set [4] (solvent Acetone), in data set [4] (solvent DCE), in data set [4] (solvent DCM) and in data set [4] (solvent DMSO) was “No” each time. Besides, the “Solids dissolve at 65° C.?” value in data set [4] (solvent EtOAc), in data set [4] (solvent EtOH), in data set [4] (solvent IPA), in data set [4] (solvent MEK), in data set [4] (solvent MTBE) and in data set [4] (solvent MeOH) was “No” in each case. Also, the “Solids dissolve at 65° C.?” value in data set [4] (solvent THF), in data set [4] (solvent iPAc) and in data set [4] (solvent water) was “No” in each case. In addition, the “Solubility (in words)” value in data set [4] (solvent systems examined) was “low solubility”. The “Solids upon heating to 65° C.” value in data set [4] (solvent systems examined, 65° C.) is reported as “did not dissolve”.
`COc1ccc(CN2CCN(c3ccc(-c4cc(-c5cnn(C)c5)cn5ncc(C#N)c45)cn3)CC2)cn1.Cl` [HCl salt]: in data set [1], the “Mass gain by DVS” value was “approximately 5%”, the “Hygroscopicity by DVS (in words)” value was “hygroscopic” and the “Deliquescence upon removal from the DVS chamber” value is given as “no observable deliquescence”. For the same compound, in data set [3], the Absolute % change is listed as 0.0%; the “Stability, HPLC analysis, T = 1 week” value is 99.3%; the “Stability, HPLC analysis, T = 2 weeks” value came to 99.3%; the “Stability, HPLC analysis, T = 3 weeks” value is reported as 99.3%. Moreover, in data set [3], the “Stability, HPLC analysis, T = 4 weeks” value turned out to be 99.3% and the “Stability, HPLC analysis, T = 0” value was 99.3%.
With `CC(C)(O)COc1cc(-c2ccc(N3CCC(O)(Cc4ccccn4)CC3)nc2)c2c(C#N)cnn2c1` [compound of Formula IV, 6-(2-hydroxy-2-methylpropoxy)-4-(6-(4-hydroxy-4-(pyridin-2-ylmethyl)piperidin-1-yl)pyridin-3-yl)pyrazolo[1,5-a]pyridine-3-carbonitrile], the solubility in data set [5] (Water) was 0.007 mg/mL; in data set [5] (aqueous with cosolvent or surfactant or cyclodextrin, Acetone:water (1:1)), 45.8 mg/mL; in data set [5] (aqueous with cosolvent or surfactant or cyclodextrin, EtOH:water (1:1)), 51 mg/mL; in data set [5] (organic solvent or mixture, ACN) it was 21.2 mg/mL; in data set [5] (organic solvent or mixture, Acetone) it was 42.9 mg/mL; in data set [5] (organic solvent or mixture, Acetone:heptane (1:1)), 6.1 mg/mL. In addition, the solubility is 16.6 mg/mL in data set [5] (organic solvent or mixture, Butanol); greater than 59 mg/mL in data set [5] (organic solvent or mixture, Chloroform); 11.7 mg/mL in data set [5] (organic solvent or mixture, Chloroform:heptane (1:1)); greater than 70 mg/mL in data set [5] (organic solvent or mixture, DCM); 55 mg/mL in data set [5] (organic solvent or mixture, EtOH:water (90:10)); 5.2 mg/mL in data set [5] (organic solvent or mixture, Ethanol). Also, the solubility was 21 mg/mL in data set [5] (organic solvent or mixture, Ethyl acetate); 7 mg/mL in data set [5] (organic solvent or mixture, IPA); 30.7 mg/mL in data set [5] (organic solvent or mixture, MEK); 5.5 mg/mL in data set [5] (organic solvent or mixture, MTBE); greater than 74 mg/mL in data set [5] (organic solvent or mixture, Methanol); greater than 37 mg/mL in data set [5] (organic solvent or mixture, THF). The solubility was 0.6 mg/mL in data set [5] (organic solvent or mixture, THF:heptane (30:70)) and greater than 62 mg/mL in data set [5] (organic solvent or mixture, p-dioxane).

The record behind these values is patent US10584124B2, “Crystalline forms” (Array BioPharma Inc., priority 2017, dated 2020).
